The target in this experiment is T1, OR2AT4 (olfactory receptor 2AT4) (Homo sapiens, UniProt A6NND4).
T1 sequence (A6NND4 1-320): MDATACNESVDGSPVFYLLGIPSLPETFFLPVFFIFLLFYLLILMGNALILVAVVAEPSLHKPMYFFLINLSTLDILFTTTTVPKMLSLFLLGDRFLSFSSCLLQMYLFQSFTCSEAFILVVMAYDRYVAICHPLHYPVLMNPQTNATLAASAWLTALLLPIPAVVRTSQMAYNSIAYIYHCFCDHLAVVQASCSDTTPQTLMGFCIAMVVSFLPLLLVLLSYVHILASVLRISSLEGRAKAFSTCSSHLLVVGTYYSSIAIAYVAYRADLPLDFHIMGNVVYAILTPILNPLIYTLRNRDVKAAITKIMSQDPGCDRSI
The experiment can be described thus: calcium imaging dose-response in K562 cells (endogenous receptor), blocked by antagonist Phenirat. The experiment is classed as cell-based.

For one compound, EC50 results are on record in PMC4979481, “Functional characterization of the ectopically expressed olfactory receptor 2AT4 in human myelogenous leukemia” (Cell Death Discovery, 2016).

The structures appear in SMILES notation.

With `CC1=CCC(CCC(C)C(C)O)C1(C)C` (stereo not shown) [Sandalore], the EC50 stood at 265 µM.

By EC50 is commonly meant the concentration at which the effect is half-maximal.
